# Like-named read-outs stand apart in the source and are kept apart here.
# How the values were obtained:
# [1] = target: T1, human recombinant histamine H2 receptor (Homo sapiens, UniProt P25021); assay: Histamine H2 radioligand binding ([125I]Aminopotentidine)
# T1 construct: expressed in transfected cells; host or cells: CHO-K1 cells
# How it was run: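 Test compounds were assessed for their ability to displace radioligand from the human recombinant histamine H2 receptor. Non-specific binding was determined in the presence of 3 μM Tiotidine, and results were expressed as percent inhibition of specific binding, with 1% DMSO serving as the vehicle.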
# [2] = target: T2, human recombinant adrenergic α2B receptor (Homo sapiens, UniProt P18089); assay: Adrenergic α2B radioligand binding ([3H]Rauwolscine); parameters: Inhibition of ligand binding, Adren. alpha2B: concentration or dose not given beside the values; conditions: for Inhibition of ligand binding, Adren. alpha2B: percent inhibition of specific binding
# T2 construct: expressed in transfected cells; host or cells: CHO-K1 cells
# T2 sequence (P18089 1-450): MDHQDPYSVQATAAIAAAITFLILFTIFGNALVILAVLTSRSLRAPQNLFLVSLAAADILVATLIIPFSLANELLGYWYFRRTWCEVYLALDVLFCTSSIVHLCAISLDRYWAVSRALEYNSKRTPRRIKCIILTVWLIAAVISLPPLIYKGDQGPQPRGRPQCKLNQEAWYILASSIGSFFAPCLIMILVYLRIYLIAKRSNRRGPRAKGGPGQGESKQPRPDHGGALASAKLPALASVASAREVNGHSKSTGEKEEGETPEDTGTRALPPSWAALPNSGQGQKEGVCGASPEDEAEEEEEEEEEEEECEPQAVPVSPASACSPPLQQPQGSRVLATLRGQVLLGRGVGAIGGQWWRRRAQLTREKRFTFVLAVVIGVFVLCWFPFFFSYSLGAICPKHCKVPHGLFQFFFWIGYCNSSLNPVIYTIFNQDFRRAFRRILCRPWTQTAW
# How it was run: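 Membranes from CHO-K1 cells expressing the receptor, in 50 mM Tris-HCl pH 7.4 with 12.5 mM MgCl2, 1 mM EDTA, 0.2% BSA, incubated with compounds and 2.5 nM [3H]Rauwolscine for 60 minutes at 25 °C.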
# [3] = target: T3, human recombinant serotonin (5-Hydroxytryptamine) 5-HT6 receptor (Homo sapiens, UniProt P50406); assay: Serotonin 5-HT6 radioligand binding ([3H]LSD); parameters: Inhibition of ligand binding, Ser. 5-HT6: concentration or dose not given beside the values; conditions: for Inhibition of ligand binding, Ser. 5-HT6: percent inhibition of specific binding
# T3 construct: expressed in transfected cells; host or cells: human HeLa cells
# T3 sequence (P50406 whole entry): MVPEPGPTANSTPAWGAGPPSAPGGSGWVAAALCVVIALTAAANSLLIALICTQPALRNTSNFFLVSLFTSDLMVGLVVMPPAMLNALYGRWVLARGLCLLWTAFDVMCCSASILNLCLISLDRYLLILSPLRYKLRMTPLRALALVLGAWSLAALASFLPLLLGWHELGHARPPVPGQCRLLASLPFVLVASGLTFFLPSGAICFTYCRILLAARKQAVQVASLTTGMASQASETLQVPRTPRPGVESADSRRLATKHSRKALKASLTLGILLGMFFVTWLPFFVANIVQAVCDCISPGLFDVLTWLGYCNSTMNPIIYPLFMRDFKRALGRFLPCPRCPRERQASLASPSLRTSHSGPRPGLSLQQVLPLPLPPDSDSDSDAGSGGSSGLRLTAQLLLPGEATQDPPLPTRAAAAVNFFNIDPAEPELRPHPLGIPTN
# Text: Receptor proteins were filtered and washed, the filters were then counted to determine [3H]LSD specifically bound. […] Biochemical assay results are presented as the percent inhibition of specific binding in Table 6.
# [4] = target: T4, human recombinant adrenergic α2A receptor (Homo sapiens, UniProt P08913); assay: Adrenergic α2A radioligand binding ([3H]MK-912); parameters: Inhibition of ligand binding, Adren. alpha2A: concentration or dose not given beside the values; conditions: for Inhibition of ligand binding, Adren. alpha2A: percent inhibition of specific binding
# T4 construct: expressed in transfected cells; host or cells: insect Sf9 cells
# T4 sequence (P08913 1-465): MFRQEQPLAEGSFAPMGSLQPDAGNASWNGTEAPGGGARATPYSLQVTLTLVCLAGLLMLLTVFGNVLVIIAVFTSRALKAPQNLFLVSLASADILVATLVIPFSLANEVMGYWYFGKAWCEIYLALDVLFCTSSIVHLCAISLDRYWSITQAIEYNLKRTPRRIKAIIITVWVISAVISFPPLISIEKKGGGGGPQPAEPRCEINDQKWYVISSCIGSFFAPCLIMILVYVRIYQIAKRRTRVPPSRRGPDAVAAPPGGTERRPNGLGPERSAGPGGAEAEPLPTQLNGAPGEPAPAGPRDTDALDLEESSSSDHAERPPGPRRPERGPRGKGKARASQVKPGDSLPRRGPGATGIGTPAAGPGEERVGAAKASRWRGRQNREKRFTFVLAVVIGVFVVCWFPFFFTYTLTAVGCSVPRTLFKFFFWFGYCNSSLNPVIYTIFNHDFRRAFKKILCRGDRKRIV
# How it was run: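 Membranes from Sf9 cells expressing the receptor were incubated with 1 nM [3H]MK-912 for 60 minutes at 25° C in 50 mM Tris-HCl pH 7.4, 12.5 mM MgCl2, 2 mM EDTA. 10 μM WB-4101 defined non-specific binding. Values are percent inhibition of specific bound radioactivity after filtration.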
# [5] = target: T5, human recombinant histamine H1 receptor (Homo sapiens, UniProt P35367); assay: Histamine H1 radioligand binding ([3H]Pyrilamine)
# T5 construct: expressed in transfected cells; host or cells: CHO cells
# T5 sequence (P35367 whole entry): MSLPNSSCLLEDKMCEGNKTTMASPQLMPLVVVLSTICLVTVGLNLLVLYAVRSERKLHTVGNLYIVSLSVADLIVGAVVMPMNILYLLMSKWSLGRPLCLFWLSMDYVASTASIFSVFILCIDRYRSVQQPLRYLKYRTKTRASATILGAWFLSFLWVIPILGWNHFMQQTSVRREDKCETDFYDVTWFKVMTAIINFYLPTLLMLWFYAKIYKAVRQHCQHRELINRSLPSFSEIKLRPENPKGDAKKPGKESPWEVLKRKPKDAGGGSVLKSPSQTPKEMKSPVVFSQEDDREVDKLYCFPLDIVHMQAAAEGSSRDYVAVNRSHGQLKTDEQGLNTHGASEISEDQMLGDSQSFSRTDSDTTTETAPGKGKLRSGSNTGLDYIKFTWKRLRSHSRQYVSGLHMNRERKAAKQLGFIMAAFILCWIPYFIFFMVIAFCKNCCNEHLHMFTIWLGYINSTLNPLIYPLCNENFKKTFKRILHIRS
# How it was run: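 Receptor expressed in CHO cells, assayed in 50 mM Tris-HCl pH 7.4 with 2 mM MgCl2, 100 mM NaCl, 250 mM sucrose. Compounds tested at 1 μM in 1% DMSO; non-specific binding set with 1 μM pyrilamine. Filter-bound radioactivity counted; values are percent inhibition of specific binding.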
# [6] = percent inhibition of specific binding, screened at 1 μM, read-out: Inhibition of ligand binding, Hist. H2
# [7] = percent inhibition of specific binding, screened at 1 μM, read-out: Inhibition of ligand binding, Hist. H1
# T1 sequence (P25021 whole entry): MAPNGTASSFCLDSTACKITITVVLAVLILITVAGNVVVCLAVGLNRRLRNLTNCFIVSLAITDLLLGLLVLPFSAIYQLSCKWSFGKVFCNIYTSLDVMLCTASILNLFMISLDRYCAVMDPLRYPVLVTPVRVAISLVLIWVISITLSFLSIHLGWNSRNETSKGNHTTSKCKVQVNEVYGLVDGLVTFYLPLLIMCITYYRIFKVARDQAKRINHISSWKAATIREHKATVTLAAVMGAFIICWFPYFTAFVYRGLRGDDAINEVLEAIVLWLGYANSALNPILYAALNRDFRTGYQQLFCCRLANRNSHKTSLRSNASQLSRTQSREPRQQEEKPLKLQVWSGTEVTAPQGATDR
SMILES,"inhibition at 1 µM [1, 6] [%]","Inhibition of ligand binding, Adren. alpha2B [2] [%]","Inhibition of ligand binding, Ser. 5-HT6 [3] [%]","Inhibition of ligand binding, Adren. alpha2A [4] [%]","inhibition at 1 µM [5, 7] [%]","inhibition at 1 µM ([1]; compounds screened at 1 μM, read-out: Inhibition of ligand binding, Hist. H2 (percent inhibition of specific binding)) [%]","inhibition at 1 µM ([2]; compounds screened at 1 μM, read-out: Inhibition of ligand binding, Adren. alpha2B (percent inhibition of specific binding)) [%]","inhibition at 1 µM ([3]; compounds screened at 1 μM, read-out: Inhibition of ligand binding, Ser. 5-HT6 (percent inhibition of specific binding)) [%]","inhibition at 1 µM ([4]; compounds screened at 1 μM, read-out: Inhibition of ligand binding, Adren. alpha2A (percent inhibition of specific binding)) [%]","inhibition at 1 µM ([5]; compounds screened at 1 μM, read-out: Inhibition of ligand binding, Hist. H1 (percent inhibition of specific binding)) [%]"
"CC(=O)N1CCN(C(=O)Cn2c3c(c4cc(Cl)ccc42)CN(C)CC3)CC1 [Compound 297, 1-(4-Acetyl-piperazin-1-yl)-2-(8-chloro-2-methyl-1,2,3,4-tetrahydro-pyrido[4,3-b]indol-5-yl)-ethanone]",3,7,9,−2,43,–,–,–,–,–
"CC1CCCCN1C(=O)Cn1c2c(c3cc(Cl)ccc31)CN(C)CC2 (centres unmarked) [Compound 321, 2-(8-chloro-1,2,3,4-tetrahydro-2-methylpyrido[4,3-b]indol-5-yl)-1-(2-methylpiperidin-1-yl)ethanone]",25,25,15,12,50,–,–,–,–,–
"Cc1ccc2c(c1)c1c(n2CCc2cnc(C)cn2)CCN(C)C1 [Compound 322, 2,8-dimethyl-5-(2-(5-methylpyrazin-2-yl)ethyl)-2,3,4,5-tetrahydro-1H-pyrido[4,3-b]indole]",20,115,75,44,89,–,–,–,–,–
"Cc1ccc2c(c1)c1c(n2CCc2cnc(C)nc2)CCN(C)C1 [Compound 323, 2,3,4,5-tetrahydro-2,8-dimethyl-5-(2-(2-methylpyrimidin-5-yl)ethyl)-1H-pyrido[4,3-b]indole]",17,62,69,6,93,–,–,–,–,–
"CN1CCc2c(c3cc(Cl)ccc3n2CCCc2ccc(C(F)(F)F)nc2)C1 [Compound 324, 8-chloro-5-(3-(6-(trifluoromethyl)pyridin-3-yl)propyl)-2,3,4,5-tetrahydro-2-methyl-1H-pyrido[4,3-b]indole]",63,98,93,60,101,–,–,–,–,–
"CC1CCN(C(=O)CCn2c3c(c4cc(Cl)ccc42)CN(C)CC3)CC1 [Compound 325, 3-(8-chloro-1,2,3,4-tetrahydro-2-methylpyrido[4,3-b]indol-5-yl)-1-(4-methylpiperidin-1-yl)propan-1-one]",22,58,41,58,90,–,–,–,–,–
"CN1CCc2c(c3cc(Cl)ccc3n2CCC(=O)N2CCCCC2)C1 [Compound 326, 3-(8-chloro-1,2,3,4-tetrahydro-2-methylpyrido[4,3-b]indol-5-yl)-1-(piperidin-1-yl)propan-1-one]",12,52,26,55,47,–,–,–,–,–
"CN1CCc2c(c3cc(Cl)ccc3n2CCC(=O)N2CCOCC2)C1 [Compound 328, 3-(8-chloro-1,2,3,4-tetrahydro-2-methylpyrido[4,3-b]indol-5-yl)-1-morpholinopropan-1-one]",4,21,29,45,56,–,–,–,–,–
"CN1CCc2c(c3ccccc3n2CCc2ccccn2)C1 [Compound 329, 2,3,4,5-tetrahydro-2-methyl-5-(2-(pyridin-2-yl)ethyl)-1H-pyrido[4,3-b]indole]",16,68,15,37,18,–,–,–,–,–
"Cc1ccc2c(c1)c1c(n2CC(=O)N2CCOCC2)CCN(C)C1 [Compound 330, 2-(1,2,3,4-tetrahydro-2,8-dimethylpyrido[4,3-b]indol-5-yl)-1-morpholinoethanone]",6,6,19,1,8,–,–,–,–,–
"Cc1ccc2c(c1)c1c(n2CCCc2ccc(C(F)(F)F)nc2)CCN(C)C1 [Compound 331, 5-(3-(6-(trifluoromethyl)pyridin-3-yl)propyl)-2,3,4,5-tetrahydro-2,8-dimethyl-1H-pyrido[4,3-b]indole]",73,105,100,50,102,–,–,–,–,–
"CCOc1ccc(CCn2c3c(c4cc(C)ccc42)CN(C)CC3)cc1 [Compound 334, 5-[2-(4-Ethoxy-phenyl)-ethyl]-2,8-dimethyl-2,3,4,5-tetrahydro-1H-pyrido[4,3-b]indole]",91,111,101,101,99,–,–,–,–,–
"Cc1ccc2c(c1)c1c(n2CCc2ccc(OC(C)(C)C)cc2)CCN(C)C1 [Compound 335, 5-(4-tert-butoxyphenethyl)-2,3,4,5-tetrahydro-2,8-dimethyl-1H-pyrido[4,3-b]indole]",77,104,9,31,96,–,–,–,–,–
"COc1ccc(CCn2c3c(c4cc(Cl)ccc42)CN(C)CC3)cc1 [Compound 336, 8-Chloro-5-[2-(4-methoxy-phenyl)-ethyl]-2-methyl-2,3,4,5-tetrahydro-1H pyrido[4,3-b]indole]",101,103,104,96,107,–,–,–,–,–
"COc1ccc(CCn2c3c(c4cc(Cl)ccc42)CN(C)CC3)cc1F [Compound 337, 5-(3-fluoro-4-methoxyphenethyl)-8-chloro-2,3,4,5-tetrahydro-2-methyl-1H-pyrido[4,3-b]indole]",92,117,104,97,99,–,–,–,–,–
"CN1CCc2c(c3ccncc3n2CCc2ccccn2)C1 [Compound 481, 7-aza-2-methyl-5-(2-(pyridin-2-yl)ethyl)-2,3,4,5-tetrahydro-1H-pyrido[4,3-b]indole]",–,–,–,–,–,-17,19,14,3,4
